Test results from article PMC10043390, “Novel 2-substituted-5-(4-chloro-2-phenoxy)phenyl-1,3,4-oxadiazole derivatives, ligands of GABAA/benzodiazepine receptor complex: Design, synthesis, radioligand binding assay, and pharmacological evaluation” (EXCLI Journal, 2023).
Values joined by “and” are separate entries in the source; they are usually repeats but may differ in a detail not shown here. Identical values can stand only once. Like-named read-outs stand apart in the source and are kept apart here.

Experiments:
[1] = target: benzodiazepine receptor of rat brains; test: Radioligand receptor binding assay ([3H]-flumazenil competitive binding); settings: for Ki: [3H]-flumazenil competitive binding; for Specific binding of [3H]flumazenil: mean ± SEM, n=3; for IC50: reduction of specific binding of [3H]-flumazenil by 50 %, triplicates, 30 °C, 35 min
Protocol: All of the binding assays were performed in triplicates in a total volume of 500 µL at 30 °C for 35 min (Ahmadi et al., 2013[1]).
(§1) Kd and Bmax in radioligand binding assay were calculated by non-linear regression analysis of the saturation and competitive curve data (Program Prism, Graph Pad, San Diego, CA). The IC50s of the novel compounds in binding studies were determined using […]. […] In PTZ and MES tests, the data were presented as a mean with 95% confidence intervals. In the rest of the pharmacological evaluations, one-way ANOVA with Tukey's HSD post-hoc test was used. All the data were presented as mean ± SEM and P<0.05 was considered statistically significant.

[2] = tested on: male NMRI albino mice; test: Elevated plus-maze test; type: in vivo; settings: for % duration in close arms / % duration in open arms: raw data of single animals
Protocol: The elevated plus-maze device was made up of Plexiglas, and it contained two open arms (30×5×0.5 cm) and two closed arms (30×5×35 cm) with an open roof. They were arranged so that the open arms were opposite to […]. The entire maze was elevated at a height of 1 meter. The mice were individually placed in the central square of the maze (5×5 cm) where all four arms were connected together after 30 minutes of intraperitoneal (i.p) administration of the test compounds. The time spent in the open and closed arms was recorded.

[3] = tested on: male NMRI albino mice; test: Pentobarbital-induced sleep test; type: in vivo; settings: for Sleeping time: pentobarbital 40 mg/kg i.p., raw data of single animals
Text: The duration of the loss of the righting reflex was considered as the sleeping time. […] For prevention of hypothermia during the experiment, animals were placed on an electric blanket (Khoramjouy et al., 2021[11]).

[4] = tested on: male NMRI albino mice; test: Maximal electroshock (MES) test; type: in vivo
Protocol: (§2) To assess the anticonvulsant activity of the novel compound 6a, we used PTZ-induced convulsion and MES tests (Guerrini et al., 2008[10]; Lankau et al., 2007[13]). In both models, the ability of the novel compound to protect mice against induced seizures was evaluated. Animals were closely observed for 30 minutes after injection of the lethal dose of PTZ (100 mg/kg) and the number of dead mice after convulsion was reported. In the MES test, each subject was observed closely and the incidence of hind limb tonic extension (HLTE) in the subjects after application of MES (60 Hz, 37.2 mA, and 0.25 s) was reported.
as §1

[5] = tested on: male NMRI albino mice; test: PTZ-induced lethal convulsion test; type: in vivo
Protocol: as §2, §1

[6] = tested on: male NMRI albino mice; settings: for latency of entrance to the dark compartment: testing day, raw data of single animals
Protocol: For the mice to get adapted to the lab environment, we transferred them to the lab 60 minutes before the tests started. Mice were randomly selected for all the experimental groups and each subject was tested only once for the pharmacological evaluations.
Distilled water was used as a solvent (vehicle) of PTZ and pentobarbital. Both, PTZ and pentobarbital were injected i.p. 5 ml/kg.
The passive avoidance cage (Malek Teb Co., Tehran) consists of two different compartments separated by a guillotine door. One of the compartments was black and dark while the other one was white and lighted. For the training trial, each mouse was placed in the white and light compartment and facing away from the guillotine door for 30 seconds. Next, the guillotine door was opened and the mouse was able to freely enter the black and dark compartment. When the mouse entered the black and dark compartment with four paws, it received an electric unpleasant stimulus (0.5 mA, 2 seconds) through the grid floor. On the testing day (after 24 hours), we placed the mouse in the lighted compartment and there was no electrical stimulus. We reported the latency to enter the black and dark compartment while the guillotine door was open.

[7] = doses of 5 and 10 mg/kg, over 10 minutes

For O=C(Nc1ccccc1)c1nnc(-c2ccc(Cl)cc2Oc2ccccc2)o1 [6a, 5-(4-chloro-2-phenoxyphenyl)-N-phenyl-1,3,4-oxadiazole-2-carboxamide], the Ki [1] was 0.44 nM, the “Specific binding of [3H]flumazenil” value ([1]; log[L] -7.0) was 0.3167±0.0378 cpm and the “Specific binding of [3H]flumazenil” value ([1]; log[L] -8.0) was 0.4000±0.0412 cpm. For the same compound, the “Specific binding of [3H]flumazenil” value ([1]; log[L] -8.5) was 0.4200±0.0102 cpm, the “Specific binding of [3H]flumazenil” value ([1]; log[L] -9.0) was 0.4667±0.0090 cpm and the “Specific binding of [3H]flumazenil” value ([1]; log[L] -9.5) was 0.5100±0.0156 cpm. The “Specific binding of [3H]flumazenil” value ([1]; log[L] -10.0) was 0.5800±0.0156 cpm, the “Specific binding of [3H]flumazenil” value ([1]; log[L] -11.0) was 0.6267±0.0034 cpm and the IC50 [1] was 0.73 ± 0.17 nM. For the same compound, the “% duration in close arms” value ([2]; 1.25 mg/kg i.p.) was 65.00% (2×) and 67.00% and 56.00% and 60.00% and 53.00% and 64.00% and 59.00%, the “% duration in open arms” value ([2]; 1.25 mg/kg i.p.) was 35.00% (2×) and 33.00% and 44.00% and 40.00% and 47.00% and 36.21% and 41.00% and the “% duration in close arms” value ([2]; 5 mg/kg i.p.) was 48.50% (2×) and 44.54% and 44.40% and 43.48% and 38.16% and 47.65% and 51.65%. For the same compound, the “% duration in open arms” value ([2]; 5 mg/kg i.p.) was 51.49% (2×) and 55.45% and 55.59% and 56.51% and 61.83% and 52.34% and 48.34%, the “% duration in close arms” value ([2]; 10 mg/kg i.p.) was 42.44% and 46.28% and 47.65% and 43.17% and 37.57% and 45.37% and 41.04% and 26.78% and the “% duration in open arms” value ([2]; 10 mg/kg i.p.) was 57.55% and 53.71% and 52.34% and 56.82% and 62.42% and 54.62% and 58.96% and 73.22%. For the same compound, the “effect on close arm time (CAT)” value [2, 7] was “decrease the close arm time”, the “effect on open arm time (OAT)” value [2, 7] was “increase the open arm time” and the Sleeping time ([3]; 1.25 mg/kg i.p.) was 26 min and 38 min and 39 min and 46 min and 28 min and 20 min and 24 min and 32 min. The Sleeping time ([3]; 5 mg/kg i.p.) was 48 minute and 44 minute and 50 minute (2×) and 43 minute and 57 minute and 40 minute and 56 minute, the Sleeping time ([3]; 10 mg/kg + Flumazenil (10 mg/kg)) was 43 minute (2×) and 34 minute (2×) and 27 minute (2×) and 32 minute and 29 minute and the Sleeping time ([3]; 10 mg/kg i.p.) was 53 minute and 64 minute and 47 minute (2×) and 43 minute and 40 minute and 55 minute and 49 minute. For the same compound, the “effect on sleeping time” value ([3]; dose of 10 and 5 mg/kg, P<0.001) was “increased the sleeping time”, the “hypnotic effect in presence of flumazenil” value ([3]; with flumazenil 10 mg/kg, P<0.001) was “prevented by flumazenil” and the “anticonvulsant activity in presence of flumazenil” value ([4]; MES test, flumazenil 10 mg/kg) was “can antagonize the anticonvulsant activity”. For the same compound, the ED50 ([4]; Mus musculus, ip, i.p. 30 min before MES (60 Hz, 37.2 mA, 0.25 s), HLTE, mean with 95% confidence intervals) was 27.8 mg/kg, the ED50 ([5]; Mus musculus, i.p. 30 min before PTZ 100 mg/kg, mean with 95% confidence intervals) was 72 mg/kg and the “anticonvulsant activity in presence of flumazenil” value ([5]; PTZ test, flumazenil 10 mg/kg) was “can antagonize the anticonvulsant activity”. For the same compound, the “latency of entrance to the dark compartment” value (“latency of entrance” below) ([6]; 1.25 mg/kg i.p.) was 320 second and 380 second and 393 second and 467 second and 480 second (2×) and 420 second (2×), the “latency of entrance” value ([6]; 5 mg/kg i.p.) was 480 second (2×) and 440 second and 344 second and 343 second and 380 second and 407 second and 251 second and the “latency of entrance” value ([6]; 10 mg/kg i.p.) was 320 s and 460 s and 407 s and 230 s and 400 s and 420 s and 480 s and 326 s. The “effect on latency to enter the dark compartment” value ([6]; doses of 1.25, 2.5, 5, and 10 mg/kg) was “did not show any significant effect”.
With O=C(Nc1ccccn1)c1nnc(-c2ccc(Cl)cc2Oc2ccccc2)o1 [6b, 5-(4-chloro-2-phenoxyphenyl)-N-(pyridin-2-yl)-1,3,4-oxadiazole-2-carboxamide] the Ki [1] was 2.35 nM, the “Specific binding of [3H]flumazenil” value ([1]; log[L] -7.0) was 0.2333±0.0148 cpm and the “Specific binding of [3H]flumazenil” value ([1]; log[L] -8.0) was 0.3733±0.0223 cpm. The “Specific binding of [3H]flumazenil” value ([1]; log[L] -8.5) was 0.4267±0.0090 cpm, the “Specific binding of [3H]flumazenil” value ([1]; log[L] -9.0) was 0.5233±0.0180 cpm and the “Specific binding of [3H]flumazenil” value ([1]; log[L] -9.5) was 0.5467±0.0068 cpm. The “Specific binding of [3H]flumazenil” value ([1]; log[L] -10.0) was 0.5900±0.0118 cpm, the “Specific binding of [3H]flumazenil” value ([1]; log[L] -11.0) was 0.6433±0.0122 cpm and the IC50 [1] was 3.84 ± 0.1 nM. For the same compound, the melting point was 198 to 200 °C.
For Cc1cccc(NC(=O)c2nnc(-c3ccc(Cl)cc3Oc3ccccc3)o2)n1 [6c, 5-(4-chloro-2-phenoxyphenyl)-N-(6-methylpyridin-2-yl)-1,3,4-oxadiazole-2-carboxamide], the Ki [1] was 0.76 nM, the “Specific binding of [3H]flumazenil” value ([1]; log[L] -7.0) was 0.3000±0.0059 cpm and the “Specific binding of [3H]flumazenil” value ([1]; log[L] -8.0) was 0.3100±0.0102 cpm. For the same compound, the “Specific binding of [3H]flumazenil” value ([1]; log[L] -8.5) was 0.3767±0.0090 cpm, the “Specific binding of [3H]flumazenil” value ([1]; log[L] -9.0) was 0.4467±0.0207 cpm and the “Specific binding of [3H]flumazenil” value ([1]; log[L] -9.5) was 0.5367±0.0122 cpm. For the same compound, the “Specific binding of [3H]flumazenil” value ([1]; log[L] -10.0) was 0.5700±0.0156 cpm, the “Specific binding of [3H]flumazenil” value ([1]; log[L] -11.0) was 0.5733±0.0207 cpm and the IC50 [1] was 1.25 ± 0.09 nM. The melting point was 183.2 to 184.3 °C.
